Tests used:
[1] = test system: SAS-LN; assay: Anti-lymphatic metastasis in spontaneous lymphatic metastasis model of SAS-LN; assay type: in vivo, BALB/c nude mice; conditions: iv, 3 mg Pt/kg, qw for 5 weeks, cervical lymph nodes by IVIS
Procedure: SAS-LN cells transfected with luciferase were suspended in PBS and were orthotropic implanted (2×10^5 cells per mouse) into the tongue of female BALB/c nude mice (6 to 8 weeks old). SAS-LN tumors were allowed to grow for 1 week. Cisplatin was administered by intravenous injection at dose of 3 mg Pt/kg, and CPHC008 was administered by subcutaneous injection into the buccal site at dose of 3 mg Pt/kg (n=10/group). All test articles were administrated once a week for 5 weeks. After sacrifice, cervical lymph nodes were collected to evaluate metastasis by bioluminescence imagine using IVIS.

[2] = test system: B16-F10-luc2 cells; assay: In vitro cytotoxicity assay (MTT); assay type: cell-based, Murine; conditions: 48 h treatment
Procedure: B16-F10-luc2 cells were cultured in RPMI1640 medium supplemented with 10% heat-inactivated fetal bovine serum and maintained in a humidified 37° C., 5% CO2 incubator. B16-F10-luc2 cells were seeded on 96-well plate for 2×10^3 cells per well and incubated overnight at 37° C. Cells were treated with phosphate-buffered saline (PBS), oxaliplatin, or PtHC604 for 48 hours at 37° C. Cell viability was determined by MTT assay.

[3] = Lymphatic delivery of PtHC604 by different injection routes; assay type: in vivo, Sprague Dawley (SD) rats; conditions: iv, 9 mg Pt/kg, right axillary lymph node Pt
Procedure: […] […] […] Right axillary lymph nodes were harvested and stored at −80° C. until analysis. Platinum concentration in lymph nodes was analyzed by ICP-MS (THERMO XSERIES II).

[4] = Lymphatic delivery of PtHC604 by subcutaneous injection in normal rats; assay type: in vivo, SD rats; conditions: sc mammary fat pad, 1 mg Pt/kg
Procedure: To evaluate the lymphatic delivery, SD rats were placed under isoflurane anesthesia and injected subcutaneously into the right mammary fat pad with PtHC604, PtHC16001 or oxaliplatin (1 mg Pt/kg). […] Right axillary lymph nodes, sciatic nerves and plasma were harvested and stored at −80° C. until analysis. Platinum concentrations in lymph nodes and sciatic nerves were analyzed by ICP-MS. Platinum concentration in plasma was analyzed by ICP-OES.

[5] = test system: B16-F10-luc2; assay: Survival rate and anti-lymphatic metastasis in spontaneous lymphatic metastasis model of B16-F10-luc2; assay type: in vivo, C57BL/6 mice; conditions: for volume of popliteal lymph node (mean±SEM): 3 mg Pt/kg twice a week for 2 weeks
Text: Prior inoculation of the cells, B16-F10-luc2 cells were harvested during the exponential growth period and washed twice with sterile PBS, and then suspended in PBS with 50% Matrigel (BD Biosciences). Respective 3×10^5 B16-F10-luc2 cells were implanted subcutaneously into the right hind foot pad of female C57BL/6 mice (6 to 8 weeks old). B16-F10-luc2 tumors were allowed to grow for 5 weeks, and the tumor cells spontaneously metastasized to regional popliteal lymph node. Lymphatic metastasis was confirmed by bioluminescence imagine using IVIS spectrum. Oxaliplatin was administered by intravenous or subcutaneous injection at the dose of 3 mg Pt/kg, and PtHC604 was administered by subcutaneous injection into the footpad at the same dose of 3 mg Pt/kg. All test articles were administrated twice a week for 2 weeks (n=6-8/group in one independent experiment). Tumor size was measured by calipers and converted into tumor volume using the following formula: V=LS^2/2 (where L is the longest diameter and S is the shortest diameter). Death was defined when mice dead or tumor volumes were >3000 mm^3. At the end of study, mice were sacrificed and the popliteal lymph node was collected for measurement. The volume of lymph node was measured by the same formula above: V=LS^2/2.

[6] = Local toxicity assessment (Primary Dermal Irritation Index); assay type: in vivo, BALB/c mice; conditions: sc foot pad
Procedure: Mice were weighted and grouped into (1) vehicle; (2) 0.3 mg Pt/kg oxaliplatin; (3) 1 mg Pt/kg oxaliplatin; (4) 3 mg Pt/kg Oxaliplatin; (5) 0.3 mg Pt/kg PtHC604; (6) 1 mg Pt/kg PtHC604; (7) 3 mg Pt/kg PtHC604, n=6/group. Each animal was treated once weekly for 4 weeks. The skin toxicities in the injection site were measured by erythema and oedema grading (Table 1). The skin toxicities potential was evaluated using Primary Dermal Irritation Index (PDII) by combining erythema and oedema grading, and classified into non-irritant, negligible-irritant, mild irritant, moderate irritant, and severe irritant (Table 2).

[7] = Residual drug in injection site evaluation; conditions: 1 mg Pt/kg
Procedure: After 4, 24, 48, and 96 hours post-injection, animals were euthanized by CO2. Each foot was harvested and stored at −80° C. until analysis. Platinum concentration in each foot was analyzed by ICP-MS.

[8] = 0.3 mg Pt/kg once weekly for 4 weeks
[9] = 1 mg Pt/kg once weekly for 4 weeks
[10] = 3 mg Pt/kg once weekly for 4 weeks

Row | SMILES | Lymphatic metastasis (metastatic ratio) [1] [%] | Lymphatic metastasis (metastatic ratio) ([1]; listed as cisplatin) [%] | IC50 [2] [nM] | Lymphatic AUC0-96 h [3] [µg·h/g] | AUC (96 h) (h * ug/g) Lymph node ([4]; axillary lymph node Pt) [µg·h/g] | AUC (96 h) (h * ug/g) Plasma ([4]; plasma Pt) [µg·h/g] | AUC (96 h) (h * ug/g) Sciatic nerve ([4]; sciatic nerve Pt) [µg·h/g] | volume of popliteal lymph node (mean±SEM) ([5]; intravenous injection) [mm^3] | Median survival days ([5]; iv, 3 mg Pt/kg, biw, mice bearing metastatic melanoma) [days] | volume of popliteal lymph node (mean±SEM) ([5]; subcutaneous injection) [mm^3] | Classification of dermal irritation [6, 8] | Dermal irritation index [6, 8] | Classification of dermal irritation [6, 9] | Dermal irritation index [6, 9] | Classification of dermal irritation [6, 10] | Dermal irritation index [6, 10] | Classification of dermal irritation ([6]; 3 mg Pt/kg once weekly for 4 weeks, listed as oxaliplatin) | residual Pt detected in the foot ([7]; 24 hour after sc footpad injection) [%] | Pt exposure in the foot ([7]; sc footpad injection, up to 96 hours) [µg·h/mL]
1 | N.N.[Cl][Pt][Cl] [Cisplatin] | 78 | 78 | – | – | – | – | – | – | – | – | – | – | – | – | – | – | – | – | –
2 | O=C1[O][Pt]2([NH][C@@H]3CCCC[C@H]3[NH]2)[O]C1=O [Oxaliplatin, oxaliplatin] | – | – | 650 | 468.7 | 66.0 | 6.7 | 12.0 | 72.7±46.2 | 7 | 129.2±103.9 | Non-irritation | 0 | Mild irritation | 0.5 | Severe irritation | 4.8 | Severe skin toxicities | 29 | 4089

From patent US10632081B2, “Intralymphatic delivery of hyaluronan nanoparticle for cancer metastasis” (priority 2015, dated 2020)
